Experimental data: PubChem BioAssay (NCI)
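Five compound concentrations were applied to cells in 96-well plates for 48 hours; endpoints were derived by simple linear interpolation of the resulting dose-response curve. At the TGI there is no net growth.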

What was measured:
Experiment in all cases: NCI anticancer screen, dose series, 48 h
786-0 renal = test system: 786-0 renal
A549 NSCLC = test system: A549 NSCLC
ACHN renal = test system: ACHN renal
BT-549 breast = test system: BT-549 breast
CAKI-1 renal = test system: CAKI-1 renal
CCRF-CEM leukemia = test system: CCRF-CEM leukemia
COLO 205 colon = test system: COLO 205 colon
DU-145 prostate = test system: DU-145 prostate
EKVX NSCLC = test system: EKVX NSCLC
HCC-2998 colon = test system: HCC-2998 colon
HCT-116 colon = test system: HCT-116 colon
HCT-15 colon = test system: HCT-15 colon
HL-60(TB) leukemia = test system: HL-60(TB) leukemia
HOP-62 NSCLC = test system: HOP-62 NSCLC
HOP-92 NSCLC = test system: HOP-92 NSCLC
HS 578T breast = test system: HS 578T breast
HT29 colon = test system: HT29 colon
IGROV1 ovarian = test system: IGROV1 ovarian
KM12 colon = test system: KM12 colon
LOX IMVI melanoma = test system: LOX IMVI melanoma
M14 melanoma = test system: M14 melanoma
MCF7 breast = test system: MCF7 breast
MDA-MB-231 breast = test system: MDA-MB-231 breast
MDA-MB-435 = test system: MDA-MB-435
MDA-N = test system: MDA-N
MOLT-4 leukemia = test system: MOLT-4 leukemia
NCI-H226 lung = test system: NCI-H226 lung
NCI-H23 lung = test system: NCI-H23 lung
NCI-H460 lung = test system: NCI-H460 lung
NCI-H522 lung = test system: NCI-H522 lung
NCI/ADR-RES ovarian = test system: NCI/ADR-RES ovarian
OVCAR-3 ovarian = test system: OVCAR-3 ovarian
OVCAR-4 ovarian = test system: OVCAR-4 ovarian
OVCAR-5 ovarian = test system: OVCAR-5 ovarian
OVCAR-8 ovarian = test system: OVCAR-8 ovarian
PC-3 prostate = test system: PC-3 prostate
RXF 393 renal = test system: RXF 393 renal
SF-268 CNS = test system: SF-268 CNS
SF-295 CNS = test system: SF-295 CNS
SF-539 CNS = test system: SF-539 CNS
SK-MEL-2 melanoma = test system: SK-MEL-2 melanoma
SK-MEL-28 melanoma = test system: SK-MEL-28 melanoma
SK-MEL-5 melanoma = test system: SK-MEL-5 melanoma
SK-OV-3 ovarian = test system: SK-OV-3 ovarian
SN12C renal = test system: SN12C renal
SNB-19 CNS = test system: SNB-19 CNS
SNB-75 CNS = test system: SNB-75 CNS
SW-620 colon = test system: SW-620 colon
TK-10 renal = test system: TK-10 renal
U251 CNS = test system: U251 CNS
UACC-257 melanoma = test system: UACC-257 melanoma
UACC-62 melanoma = test system: UACC-62 melanoma
UO-31 renal = test system: UO-31 renal

Measured: TGI

COc1cccc(CC2C(=O)N=C(NC(C)=O)N2C)c1OC(C)=O (stereo not drawn)
> 100 µM: all assays above
